Results from article PMC7576608, “Mechanisms of telomerase inhibition by oxidized and therapeutic dNTPs” (Nature Communications, 2020).
Where “and” joins values, the source holds several entries; their conditions need not be identical. Equal entries are not always repeated. One block for each compound: values may come before it.

Tests used:
[1] = molecular target: T1, telomerase (Homo sapiens, UniProt O14746); assay: Telomerase extension of 32P-end labeled primers with a single dNTP (percent primer extension); type: biochemical; set-up: made in house; anti-FLAG immunopurification, eluted with 3xFLAG peptide; conditions: for Percent Primer Extension: 50 μM single dNTP
Protocol: A chain terminating mechanism of inhibition requires that the enzyme adds the modified dNTP to a growing chain, which then blocks further synthesis. […] To test whether telomerase can incorporate other modified dNTPs, and whether the incorporation is chain terminating and/or mutagenic, we conducted direct extension assays in which we radiolabeled the primer and added increasing concentrations (5, 50, and 500 μM) of a single dNTP (Supplementary Figs. 3, 5, 6, and 7). Since modified dNTPs may prefer mispairing, we tested various primers in which the first template base was either rA3, rC1, or rU5 (primer 1, primer 2, and primer 3, respectively), and compared the percent primer extension for each dNTP at the middle 50 μM concentration (Fig. 3). Primers 1 and 2 initiate synthesis at consecutive rA3rA4 or rC1rC2 template bases, respectively, so we could examine both incorporation and extension to the next base. However, the telomerase template lacks tandem rU residues.
Fig. 3 Telomerase insertion of modified dNTPs. Telomerase reactions were conducted with 5 nM ^32P-end labeled primer a Primer 1 (TTAGGG)3, b Primer 2 (GGTTAG)3, or c Primer 3 (AGGGTT)3. Reactions contained cellular-concentration dNTPs (lane 1) or 50 μM of indicated natural dNTP (blue, lanes 2–5), oxidized dNTP (red, lanes 6–8), or therapeutic dNTP (green, lanes 9–11). Products were separated on denaturing gels. […] Letters on the right indicate the template base; P indicates unextended 18-mer primer. Graphs represent the percent of total primers extended. Images are representative of, and data are shown as mean ± s.d. from, three independent experiments. Source data are provided as a Source Data file.
(§1) An equal volume of loading buffer (94% formamide, 0.1× TBE, 0.1% bromophenol blue, 0.1% xylene cyanol) was added to the reaction eluent. The samples were heat denatured for 10 min at 100 °C and loaded onto a 14% denaturing acrylamide gel (7 M urea, 1× TBE) and electrophoresed for 90 min at constant 38 W. Samples were imaged using a Typhoon phosphorimager (GE Healthcare). Percent primer extension was calculated with ImageQuant TL 8.2 by measuring the intensity of each product band and dividing by the total radioactivity in the lane or total products, as indicated in the figure legends.
Telomerase reactions were conducted with 5 nM 32P-end labeled primer (a) Primer 1 (TTAGGG)3, (b) Primer 2 (GGTTAG)3, or (c and d) Primer 3 […]
(d) reactions contained 3 µg/µl RNase A. Products were separated on denaturing gels. Letters on the right indicate the template base; P indicates unextended 18-mer primer. Graphs represent the percent of total primers extended for the reactions in panels a – c from one experiment. Panel d is a representative image from three independent experiments. Source data are provided as a Source Data file. […]
Supplementary Fig 4. Time course reactions with telomerase or pol β. (a, b) Telomerase reactions were conducted with 5 nM 32P-end labeled primer (a) Primer 4 (GTTAGG)3 or (b) Primer 2 (GGTTAG)3.
Products were separated on denaturing gels. Letters on the right indicate the template base; P indicates […]
unextended 18-mer primer. […]

[2] = molecular target: T1, telomerase; assay: Telomerase repeat processivity IC50: modified dNTP titrated into reactions with all four natural dNTPs; type: biochemical; set-up: made in house; anti-FLAG immunopurification, eluted with 3xFLAG peptide; conditions: for Slope (line fit of ln(100-%LB) vs # telomere repeats) / YIntercept (line fit of ln(100-%LB) vs # telomere repeats): replicates n1, n2; for ln(100-%LB): n1, n2
Text: In order to better understand the ability of modified dNTPs to compete with natural dNTPs for telomerase utilization, we added modified dNTPs to reactions containing all four natural dNTPs. […] The calculated IC50 determines the concentration required to reduce repeat processivity in the bulk reactions by half. However, it is important to note that bulk experiments cannot distinguish effects on individual telomeres, since extended telomeres mask unextended telomeres. Incorporation of a chain terminator during any step will terminate extension of the affected telomere, and just five critically short telomeres are sufficient to trigger senescence. Therefore, repeat processivity IC50 values are not necessarily an indicator of the inhibitory potency, but provide information on selectivity for modified dNTPs compared to natural dNTPs. […] The ability to purify sufficient quantities of tcTERT enables characterization of the catalytic nucleotide addition by pre-steady-state single turnover kinetics using a defined DNA–RNA primer–template substrate. The catalytic efficiency of incorporating a single dNTP is measured by dividing the observed nucleotide incorporation rate constant, kpol, by the equilibrium dissociation constant for dNTP binding to the tcTERT–primer–template complex (Kd)[44].
as §1, with “The reactions were started by the addition of 3 μl of immunopurified telomerase eluent, incubated at 37 °C for 1 h, then terminated with 2 μl of […] and heat inactivated at 65 °C for 20 min. An” for “An”
The processivity was calculated as described[40],[67]. Repeat processivity from the direct telomerase extension assays was calculated as R1/2 (equivalent to the half-time for decay in an exponential time course), which represents the median length of DNA product formed, expressed in terms of number of telomere repeats. First, the total volume counts for each product band extend by one or more telomere repeats were obtained using Image Quant TL. The volume counts were then normalized by dividing by the number of radiolabeled guanosines incorporated into the extended products based on the number of repeats added, termed corrected volume (corr vol). The “percent left behind” (%LB) was calculated for each product band by summing the counts for that product band and for every product band below (shorter products), divided by the total counts for the lane, and then multiplied by 100. The natural log of (100−%LB) was calculated and then plotted vs. repeat number for each product length. A linear regression line was fit to the data to determine the slope of the line. The R1/2 value was calculated by dividing −ln(2) by the slope of each fitted line (R1/2 = −ln(2)/slope).
Supplementary Fig 8. IC50 values for telomerase processivity inhibition. Telomerase reactions were conducted with cellular relevant concentrations of all four natural dNTPs and increasing concentrations of the modified dNTP analog from 0 to 10,000 μM to calculate. (a) The natural log of (100-%LB) was plotted vs repeat number. A straight line was fit to the data and the R1/2 value was calculated by dividing –ln(2) by the slope of each line. Plots shown from one experiment are […]

T1 sequence (O14746 whole entry): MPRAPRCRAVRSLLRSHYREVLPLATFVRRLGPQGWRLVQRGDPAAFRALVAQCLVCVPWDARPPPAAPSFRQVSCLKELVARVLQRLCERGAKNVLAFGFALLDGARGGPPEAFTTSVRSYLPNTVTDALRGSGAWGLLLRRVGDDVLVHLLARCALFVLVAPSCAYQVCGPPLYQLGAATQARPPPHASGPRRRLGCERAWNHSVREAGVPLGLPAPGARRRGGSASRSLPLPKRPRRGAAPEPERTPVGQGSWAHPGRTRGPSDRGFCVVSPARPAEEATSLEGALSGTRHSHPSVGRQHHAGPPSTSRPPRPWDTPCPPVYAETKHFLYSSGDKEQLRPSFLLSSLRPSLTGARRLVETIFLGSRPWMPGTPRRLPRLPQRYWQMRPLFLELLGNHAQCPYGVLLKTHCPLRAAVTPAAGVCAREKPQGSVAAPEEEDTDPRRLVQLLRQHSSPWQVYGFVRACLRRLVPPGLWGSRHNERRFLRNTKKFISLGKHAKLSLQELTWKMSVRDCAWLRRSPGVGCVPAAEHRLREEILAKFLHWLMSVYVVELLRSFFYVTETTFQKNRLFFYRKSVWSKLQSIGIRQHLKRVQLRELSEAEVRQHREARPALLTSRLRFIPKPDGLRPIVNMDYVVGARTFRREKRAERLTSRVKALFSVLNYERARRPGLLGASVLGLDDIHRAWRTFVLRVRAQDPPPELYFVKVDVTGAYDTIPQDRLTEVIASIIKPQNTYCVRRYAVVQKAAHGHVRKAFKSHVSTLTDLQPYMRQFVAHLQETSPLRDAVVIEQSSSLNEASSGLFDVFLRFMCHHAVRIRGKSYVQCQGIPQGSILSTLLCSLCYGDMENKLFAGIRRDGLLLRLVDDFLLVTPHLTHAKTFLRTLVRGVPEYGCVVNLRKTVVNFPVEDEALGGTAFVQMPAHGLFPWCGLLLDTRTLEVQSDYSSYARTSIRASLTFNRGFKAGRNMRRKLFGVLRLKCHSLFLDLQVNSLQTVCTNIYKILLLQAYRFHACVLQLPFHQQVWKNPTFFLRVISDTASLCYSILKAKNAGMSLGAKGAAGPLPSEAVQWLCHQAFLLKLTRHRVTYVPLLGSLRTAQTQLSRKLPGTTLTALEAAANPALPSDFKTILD

- Percent Primer Extension ([1]; Primer 1 (TTAGGG)3, first template base rA3, Mean of three experiments): 5.85%
- Percent Primer Extension ([1]; Primer 1 (TTAGGG)3, first template base rA3, single experiments n1-n3, listed as dC): 5.75% and 3.98% and 7.81%
- % Primer Extension ([1]; Primer 1, 5µM dNTP): 4.15%
- % Primer Extension ([1]; Primer 1, 50µM dNTP): 7.81%
- % Primer Extension ([1]; Primer 1, 500µM dNTP): 8.06%
- Percent Primer Extension ([1]; Primer 2 (GGTTAG)3, first template base rC1, Mean of three experiments): 0.00%
- Percent Primer Extension ([1]; Primer 2 (GGTTAG)3, first template base rC1, single experiments n1-n3): 0.00%
- % Primer Extension ([1]; Primer 2, 5µM dNTP): 0.00%
- % Primer Extension ([1]; Primer 2, 50µM dNTP): 0.00%
- % Primer Extension ([1]; Primer 2, 500µM dNTP): 0.00%
- Percent Primer Extension ([1]; Primer 3 (AGGGTT)3, first template base rU5, Mean of three experiments): 0.00%
- Percent Primer Extension ([1]; Primer 3 (AGGGTT)3, first template base rU5, single experiments n1-n3): 0.00%
- % Primer Extension ([1]; Primer 3, 5µM dNTP): 0.00%
- % Primer Extension ([1]; Primer 3, 50µM dNTP): 0.00%
- % Primer Extension ([1]; Primer 3, 500µM dNTP): 0.00%
Compound: Nc1ccn([C@H]2C[C@H](O)[C@@H](COP(=O)(O)OP(=O)(O)OP(=O)(O)O)O2)c(=O)n1 [dCTP]

- Slope (line fit of ln(100-%LB) vs # telomere repeats) ([2]; 8μM): -0.35 and -0.41
- YIntercept (line fit of ln(100-%LB) vs # telomere repeats) ([2]; 8μM): 3.32 and 3.48
- ln(100-%LB) ([2]; 8μM, telomere repeat 1): 3.55 and 3.46
- ln(100-%LB) ([2]; 8μM, telomere repeat 2): 2.86 and 2.72
- ln(100-%LB) ([2]; 8μM, telomere repeat 3): 2.16 and 1.97
- ln(100-%LB) ([2]; 8μM, telomere repeat 4): 1.81 and 1.63
- ln(100-%LB) ([2]; 8μM, telomere repeat 5): 1.46 and 1.29
- ln(100-%LB) ([2]; 8μM, telomere repeat 6): 1.02 and 0.87
- ln(100-%LB) ([2]; 8μM, telomere repeat 7): 0.66 and 0.48
- ln(100-%LB) ([2]; 8μM, telomere repeat 8): 0.32 and 0.21
- Slope (line fit of ln(100-%LB) vs # telomere repeats) ([2]; 32μM): -0.51 and -0.43
- YIntercept (line fit of ln(100-%LB) vs # telomere repeats) ([2]; 32μM): 3.76 and 3.36
- ln(100-%LB) ([2]; 32μM, telomere repeat 1): 3.48 and 3.40
- ln(100-%LB) ([2]; 32μM, telomere repeat 2): 2.72 and 2.60
- ln(100-%LB) ([2]; 32μM, telomere repeat 3): 1.91 and 1.78
- ln(100-%LB) ([2]; 32μM, telomere repeat 4): 1.53 and 1.42
- ln(100-%LB) ([2]; 32μM, telomere repeat 5): 1.15 and 1.06
- ln(100-%LB) ([2]; 32μM, telomere repeat 6): 0.66
- ln(100-%LB) ([2]; 32μM, telomere repeat 7): 0.23 and 0.18
- Slope (line fit of ln(100-%LB) vs # telomere repeats) ([2]; 500μM): -1.08 and -0.93
- YIntercept (line fit of ln(100-%LB) vs # telomere repeats) ([2]; 500μM): 4.06 and 3.77
- ln(100-%LB) ([2]; 500μM, telomere repeat 1): 3.07 and 3.05
- ln(100-%LB) ([2]; 500μM, telomere repeat 2): 1.89 and 1.90
- ln(100-%LB) ([2]; 500μM, telomere repeat 3): 0.66 and 0.65
- Slope (line fit of ln(100-%LB) vs # telomere repeats) ([2]; 1000μM): -1.14 and -1.23
- YIntercept (line fit of ln(100-%LB) vs # telomere repeats) ([2]; 1000μM): 4.20 and 4.38
- ln(100-%LB) ([2]; 1000μM, telomere repeat 1): 3.08 and 3.19
- ln(100-%LB) ([2]; 1000μM, telomere repeat 2): 1.90 and 1.97
- ln(100-%LB) ([2]; 1000μM, telomere repeat 3): 0.69 and 0.55
- Slope (line fit of ln(100-%LB) vs # telomere repeats) ([2]; 2000μM): -1.39 and -1.63
- YIntercept (line fit of ln(100-%LB) vs # telomere repeats) ([2]; 2000μM): 4.11 and 4.80
- ln(100-%LB) ([2]; 2000μM, telomere repeat 1): 2.72 and 3.17
- ln(100-%LB) ([2]; 2000μM, telomere repeat 2): 1.32 and 1.54
Compound: Cc1cn(C2CC(N=[N+]=[N-])C(COP(=O)(O)OP(=O)(O)OP(=O)(O)O)O2)c(=O)[nH]c1=O (stereo not drawn) [AZ-TP]

- % Primer Extension ([1]; Primer 1, 5µM dNTP): 6.28%
- % Primer Extension ([1]; Primer 1, 50µM dNTP): 12.17%
- % Primer Extension ([1]; Primer 1, 500µM dNTP): 12.98%
- % Primer Extension ([1]; Primer 2, 5µM dNTP): 0%
- % Primer Extension ([1]; Primer 2, 50µM dNTP): 0%
- % Primer Extension ([1]; Primer 2, 500µM dNTP): 0%
- % Primer Extension ([1]; Primer 3, 5µM dNTP): 0%
- % Primer Extension ([1]; Primer 3, 50µM dNTP): 3.43%
- % Primer Extension ([1]; Primer 3, 500µM dNTP): 4.38%
Compound: Cc1cn([C@H]2C[C@H](N=[N+]=[N-])[C@@H](CO)O2)c(=O)[nH]c1=O [AZT]
